Each structure is given as a SMILES string. Read-outs that look alike come from different tables or passages of the source. A value given as a limit tells only on which side of the number the result lay.

The values below come from US20110081315A1, “NOVEL MACROCYCLIC INHIBITORS OF HEPATITIS C VIRUS REPLICATION” (INTERMUNE, INC., priority 2009, published 2011).

The subject of experiment [1] is hepatitis C replicon. The experiment can be described thus: hepatitis C replicon EC50 assay. The settings on record: Hepatitis C virus. Format: cell-based. In short, it runs like this:
(§1)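 Enzyme IC50: NS3/NS4 complex, 23° C.; buffer Tris-HCl 50 mM pH 7.5 / glycerol 15% / DTT 10 mM / LDAO 0.6 mM / NS4A peptide 25 μM. Cellular: HCV replicon EC50.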

Experiment [2] deals with NS3/NS4 complexes (Hepatitis C virus genotype 1a, UniProt P27958). The experiment can be described thus: NS3/NS4 inhibition assay (IC50). The settings on record: NS3/NS4 activity; 23° C., 25 μM NS4A peptide. Format: biochemical. In short, it runs like this: as §1
Chain of NS3/NS4 complexes (P27958 1027-1657, one chain of several): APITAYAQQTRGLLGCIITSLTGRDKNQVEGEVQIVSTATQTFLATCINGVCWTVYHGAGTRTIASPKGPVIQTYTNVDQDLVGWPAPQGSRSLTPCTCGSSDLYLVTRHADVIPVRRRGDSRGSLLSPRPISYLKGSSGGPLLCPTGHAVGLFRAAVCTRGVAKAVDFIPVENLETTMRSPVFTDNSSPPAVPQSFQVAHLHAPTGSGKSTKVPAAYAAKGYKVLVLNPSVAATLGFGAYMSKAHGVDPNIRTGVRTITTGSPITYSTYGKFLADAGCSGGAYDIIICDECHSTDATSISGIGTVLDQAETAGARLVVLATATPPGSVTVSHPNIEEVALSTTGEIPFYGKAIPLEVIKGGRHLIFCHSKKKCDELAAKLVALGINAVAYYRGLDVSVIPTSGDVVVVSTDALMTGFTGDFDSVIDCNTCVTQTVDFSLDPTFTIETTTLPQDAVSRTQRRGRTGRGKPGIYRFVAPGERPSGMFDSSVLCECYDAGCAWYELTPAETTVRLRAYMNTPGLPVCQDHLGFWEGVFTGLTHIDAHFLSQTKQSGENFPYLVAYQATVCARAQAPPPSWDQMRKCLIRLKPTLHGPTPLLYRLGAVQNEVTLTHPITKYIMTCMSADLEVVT
[3] abbreviates: hepatitis C replicon, read-out: EC50.

Regarding `Cn1cnc2ccc(O[C@@H]3C[C@H]4C(=O)N[C@]5(C(=O)NS(=O)(=O)C6(C)CC6)C[C@H]5/C=C\CCCCC[C@H](NC(=O)OC(C)(C)C)C(=O)N4C3)cc21` [Compound 296], in experiment [1] (setting [3]), the EC50 was above 100 nM. In experiment [2], this compound returned a half-maximal inhibitory concentration (IC50) below 10 nM.
In the same order, the values of `COc1cccc2c1nc(O[C@@H]1C[C@H]3C(=O)N[C@]4(C(=O)NS(=O)(=O)C5(C)CC5)C[C@H]4/C=C\CCCCC[C@H](Nc4ccccc4)C(=O)N3C1)n2C(C)C` [Compound 285] are below 10 nM and below 10 nM.
Turning to `CC(C)n1c(O[C@@H]2C[C@H]3C(=O)N[C@]4(C(=O)NS(=O)(=O)C5CC5)C[C@H]4/C=C\CCCCC[C@H](NC(=O)OC(C)(C)C)C(=O)N3C2)nc2c(-c3nc4ccccc4s3)cccc21` [Compound 214], the half-maximal effective concentration (EC50) in experiment [1] (setting [3]) was below 10 nM. The IC50 in experiment [2] was below 10 nM.
Consider `COc1ccc2c(O[C@@H]3C[C@H]4C(=O)N[C@]5(C(=O)NS(=O)(=O)C6(C)CC6)C[C@H]5/C=C\CCCCC[C@H](NC(=O)N5CCCC5)C(=O)N4C3)cc(-c3nc(C(C)C)cs3)nc2c1C` [Compound 1733], for which, in experiment [1] (setting [3]), the EC50 is below 10 nM. In experiment [2], this compound gave an IC50 below 10 nM.
With `CC(C)n1c(O[C@@H]2C[C@H]3C(=O)N[C@]4(C(=O)NS(=O)(=O)C5(C)CC5)C[C@H]4/C=C\CCCCC[C@H](Nc4ccccc4)C(=O)N3C2)nc2c(-c3cccc(C(=O)N(C)C)c3)cccc21` [Compound 248], the EC50 in experiment [1] (setting [3]) lay in the range of 10 to 100 nM. The same compound gave an IC50 in experiment [2] below 10 nM.
In the same order, the values of `COc1ccc(Cc2csc(-c3cccc4c3nc(O[C@@H]3C[C@H]5C(=O)N[C@]6(C(=O)NS(=O)(=O)N(C)C)C[C@H]6/C=C\CCCCC[C@H](NC(=O)OC(C)(C)C)C(=O)N5C3)n4C(C)C)n2)cc1OC` [Compound 1757] are below 10 nM and below 10 nM.
The corresponding values for `COc1ccc(Cc2csc(-c3cccc4c3nc(O[C@@H]3C[C@H]5C(=O)N[C@]6(C(=O)NS(=O)(=O)C7(C)CC7)C[C@H]6/C=C\CCCCC[C@H](NC(=O)OC(C)(C)C)C(=O)N5C3)n4C(C)C)n2)cc1OC` [Compound 1723] are below 10 nM and below 10 nM.
The corresponding values for `CCOC(=O)c1nc2ccccc2nc1O[C@@H]1C[C@H]2C(=O)N[C@]3(C(=O)NS(=O)(=O)N(C)C)C[C@H]3/C=C\CCCCC[C@H](NC(=O)OC(C)(C)C)C(=O)N2C1` [Compound 309] are 10 to 100 nM and below 10 nM.
As for `COc1ccc2c(O[C@@H]3C[C@H]4C(=O)N[C@]5(C(=O)NS(=O)(=O)C6(C)CC6)C[C@H]5/C=C\CCCCC[C@H](Nc5cccc(C(=O)N6CCN(c7ccccn7)CC6)c5)C(=O)N4C3)cc(-c3nc(C(C)C)cs3)nc2c1C` [Compound 126], in experiment [1] (setting [3]), the concentration giving a half-maximal response (EC50) was below 10 nM. Further, the IC50 in experiment [2] is below 10 nM.
As to `CC(C)n1c(O[C@@H]2C[C@H]3C(=O)N[C@]4(C(=O)NS(=O)(=O)C5CC5)C[C@H]4/C=C\CCCCC[C@H](NC(=O)OC(C)(C)C)C(=O)N3C2)nc2c(-c3nc(C(C)(C)C)cs3)cccc21` [Compound 220], in experiment [1] (setting [3]), the EC50 was below 10 nM. Besides, in experiment [2], the IC50 was below 10 nM.
With `CCc1nc2ccccc2nc1O[C@@H]1C[C@H]2C(=O)N[C@]3(C(=O)NS(=O)(=O)C4(C)CC4)C[C@H]3/C=C\CCCCC[C@H](Nc3ccccc3)C(=O)N2C1` [Compound 312], the concentration giving a half-maximal response (EC50) in experiment [1] (setting [3]) was 10 to 100 nM. The concentration for half-maximal inhibition (IC50) in experiment [2] is below 10 nM.
`Cc1sc(-c2cccc3c2nc(O[C@@H]2C[C@H]4C(=O)N[C@]5(C(=O)NS(=O)(=O)C6(C)CC6)C[C@H]5/C=C\CCCCC[C@H](NC(=O)OC(C)(C)C)C(=O)N4C2)n3C(C)C)nc1C(C)C` [Compound 237]: the EC50 in experiment [1] (setting [3]) was below 10 nM. For the same compound, in experiment [2], the IC50 was below 10 nM.
In the case of `CCNC(=O)c1cccc2c1nc(O[C@@H]1C[C@H]3C(=O)N[C@]4(C(=O)NS(=O)(=O)N(C)C)C[C@H]4/C=C\CCCCC[C@H](NC(=O)OC(C)(C)C)C(=O)N3C1)n2C(C)C` [Compound 280], the EC50 in experiment [1] (setting [3]) is below 10 nM. Besides, in experiment [2], the IC50 was below 10 nM.
Turning to `CC(C)(C)OC(=O)N[C@H]1CCCCC/C=C\[C@@H]2C[C@@]2(C(=O)NS(=O)(=O)C2CC2)NC(=O)[C@@H]2C[C@@H](Oc3ncc4ncn(Cc5ccccc5)c4n3)CN2C1=O` [Compound 506], the EC50 in experiment [1] (setting [3]) was above 100 nM. This compound showed an IC50 in experiment [2] below 10 nM.
In the same order, the values of `Cc1cccc(-c2csc(-c3cccc4c3nc(O[C@@H]3C[C@H]5C(=O)N[C@]6(C(=O)NS(=O)(=O)C7(C)CC7)C[C@H]6/C=C\CCCCC[C@H](NC(=O)OC(C)(C)C)C(=O)N5C3)n4C(C)C)n2)c1` [Compound 1713] are 10 to 100 nM and below 10 nM.
The corresponding values for `CNC(=O)Nc1cccc2c1nc(O[C@@H]1C[C@H]3C(=O)N[C@]4(C(=O)NS(=O)(=O)C5(C)CC5)C[C@H]4/C=C\CCCCC[C@H](Nc4ccccc4)C(=O)N3C1)n2C(C)C` [Compound 1406] are above 100 nM and below 10 nM.
Consider `CC(C)n1c(O[C@@H]2C[C@H]3C(=O)N[C@]4(C(=O)NS(=O)(=O)N(C)C)C[C@H]4/C=C\CCCCC[C@H](NC(=O)OC(C)(C)C)C(=O)N3C2)nc2cnccc21` [Compound 209], for which the EC50 in experiment [1] (setting [3]) was 10 to 100 nM. For the same compound, the IC50 in experiment [2] is below 10 nM.
The corresponding values for `CCN1CCN(C(=O)c2cccc(N[C@H]3CCCCC/C=C\[C@@H]4C[C@@]4(C(=O)NS(=O)(=O)C4(C)CC4)NC(=O)[C@@H]4C[C@@H](Oc5cc(-c6nc(C(C)C)cs6)nc6c(C)c(OC)ccc56)CN4C3=O)c2)CC1` [Compound 112] are below 10 nM and below 10 nM.
The corresponding values for `CC(C)n1c(O[C@@H]2C[C@H]3C(=O)N[C@]4(C(=O)NS(=O)(=O)C5(C)CC5)C[C@H]4/C=C\CCCCC[C@H](Nc4ccc(F)c(C(F)(F)F)c4)C(=O)N3C2)nc2cncnc21` [Compound 502] are 10 to 100 nM and below 10 nM.
The corresponding values for `CCOC(=O)Nc1cccc2c1nc(O[C@@H]1C[C@H]3C(=O)N[C@]4(C(=O)NS(=O)(=O)N(C)C)C[C@H]4/C=C\CCCCC[C@H](NC(=O)OC(C)(C)C)C(=O)N3C1)n2C(C)C` [Compound 1427] are below 10 nM and below 10 nM.
For `CC(C)c1ccn(-c2cccc3c2nc(O[C@@H]2C[C@H]4C(=O)N[C@]5(C(=O)NS(=O)(=O)C6(C)CC6)C[C@H]5/C=C\CCCCC[C@H](NC(=O)OC(C)(C)C)C(=O)N4C2)n3C(C)C)n1` [Compound 1404], the EC50 in experiment [1] (setting [3]) is below 10 nM. For the same compound, in experiment [2], the IC50 was below 10 nM.
On to `COc1ccc2c(O[C@@H]3C[C@H]4C(=O)N[C@]5(C(=O)NS(=O)(=O)C6CC6)C[C@H]5/C=C\CCCCN(c5ccccc5)C(=O)[C@@H]4C3)cc(-c3nc(C(C)C)cs3)nc2c1C` [Compound 1601], for which the EC50 in experiment [1] (setting [3]) was above 100 nM. In experiment [2], this compound returned an IC50 below 10 nM.
The corresponding values for `CC(C)n1c(O[C@@H]2C[C@H]3C(=O)N[C@]4(C(=O)NS(=O)(=O)C5(C)CC5)C[C@H]4/C=C\CCCCC[C@H](NC(=O)OC(C)(C)C)C(=O)N3C2)nc2ncccc21` [Compound 1779] are 10 to 100 nM and below 10 nM.
In the same order, the values of `COc1ccc2c(O[C@@H]3C[C@H]4C(=O)N[C@]5(C(=O)NS(=O)(=O)C6(C)CC6)C[C@H]5/C=C\CCCCC[C@H](Nc5cccc(C(=O)N6CCN(CCO)CC6)c5)C(=O)N4C3)cc(-c3nc(C(C)C)cs3)nc2c1C` [Compound 117] are below 10 nM and below 10 nM.
In the same order, the values of `CC(C)n1c(O[C@@H]2C[C@H]3C(=O)N[C@]4(C(=O)NS(=O)(=O)C5(C)CC5)C[C@H]4/C=C\CCCCC[C@H](Nc4ccccc4)C(=O)N3C2)nc2c(-c3cccc(C(F)(F)F)c3)cccc21` [Compound 251] are above 100 nM and below 10 nM.
With `COc1ccc2c(O[C@@H]3C[C@H]4C(=O)N[C@]5(C(=O)NS(=O)(=O)C6(C)CC6)C[C@H]5/C=C\CCCCC[C@H](Nc5cccc(C(=O)N6CCN(c7ncccn7)CC6)c5)C(=O)N4C3)cc(-c3nc(C(C)C)cs3)nc2c1C` [Compound 125], the EC50 in experiment [1] (setting [3]) was below 10 nM. The compound further came in with an IC50 in experiment [2] below 10 nM.
Consider `COc1ccc2c(O[C@@H]3C[C@H]4C(=O)N[C@]5(C(=O)NS(=O)(=O)C6(C)CC6)C[C@H]5/C=C\CCCCC[C@H](Nc5cccc(C(=O)N6CCN(CCN(C)C)CC6)c5)C(=O)N4C3)cc(-c3nc(C(C)C)cs3)nc2c1C` [Compound 111], for which, in experiment [1] (setting [3]), the EC50 was below 10 nM. The compound also gave an IC50 in experiment [2] below 10 nM.
`CC(C)n1c(O[C@@H]2C[C@H]3C(=O)N[C@]4(C(=O)NS(=O)(=O)N(C)C)C[C@H]4/C=C\CCCCC[C@H](NC(=O)OC(C)(C)C)C(=O)N3C2)nc2c(C(=O)Nc3ccccc3)cccc21` [Compound 282] registered an EC50 in experiment [1] of 10 to 100 nM. Moreover, the IC50 in experiment [2] was below 10 nM.
With `CC(C)n1c(O[C@@H]2C[C@H]3C(=O)N[C@]4(C(=O)NS(=O)(=O)C5(C)CC5)C[C@H]4/C=C\CCCCC[C@H](NC(=O)OC4COC4)C(=O)N3C2)nc2c(-c3nc(C4CCCC4)cs3)cccc21` [Compound 1414], the EC50 in experiment [1] (setting [3]) is below 10 nM. In addition, in experiment [2], the half-inhibitory concentration (IC50) is below 10 nM.
For `Cc1ccccc1-c1csc(-c2cccc3c2nc(O[C@@H]2C[C@H]4C(=O)N[C@]5(C(=O)NS(=O)(=O)C6(C)CC6)C[C@H]5/C=C\CCCCC[C@H](NC(=O)OC(C)(C)C)C(=O)N4C2)n3C(C)C)n1` [Compound 1712], the EC50 in experiment [1] (setting [3]) is below 10 nM. Further, in experiment [2], the IC50 was below 10 nM.
On to `Cc1ccccc1-c1cccc2c1nc(O[C@@H]1C[C@H]3C(=O)N[C@]4(C(=O)NS(=O)(=O)C5(C)CC5)C[C@H]4/C=C\CCCCC[C@H](Nc4ccccc4)C(=O)N3C1)n2C(C)C` [Compound 250], for which the 50% effective concentration (EC50) in experiment [1] (setting [3]) is above 100 nM. This compound gave an IC50 in experiment [2] below 10 nM.
The corresponding values for `CC(C)NC(=O)Nc1cccc2c1nc(O[C@@H]1C[C@H]3C(=O)N[C@]4(C(=O)NS(=O)(=O)C5(C)CC5)C[C@H]4/C=C\CCCCC[C@H](Nc4ccccc4)C(=O)N3C1)n2C(C)C` [Compound 1407] are 10 to 100 nM and below 10 nM.
